Source: patent US20220257491A1, “Prebiotic Oral Care Compositions and Methods” (Colgate-Palmolive Company, priority 2021, published 2022)
Marks after values point to notes of the source that are not given here.

How the values were obtained:
Assay type in all cases: cell-based
[1] = system: F. nucleatum; assay: Multi-species biofilm composition: absolute abundance of F. nucleatum; conditions: mean±SD n=3
Method: (§1) Biofilms are grown vertically on Calcium Deficient Hydroxyapatite (CAD-HA) disks (Hitemco Medical, Old Bethpage, USA) using the Amsterdam Active Adhesion model. Biofilms are allowed to establish during 24 h (37° C., 170 rpm) under micro-aerophilic conditions (6% O2, 7% CO2, 7% H2, 80% N2). After this 24 h, disks are rinsed 3 times a day for 3 minutes (RT, 250 rpm), for 3 consecutive days, by transferring the lid containing the disks to a new 24-well plate containing 2 mL/well of the appropriate substrate solution. As a negative control, PBS (pH 5.7) without substrate supplementation is used. After each rinsing step, disks are shortly dip-rinsed in a new 24-well plate containing fresh modified BHI medium (2 mL/well) to remove remaining substrate traces. Subsequently, the lid is transferred to another 24-well plate containing fresh modified BHI medium (2 mL/well), followed by incubation (micro-aerophilic, 37° C., 170 rpm) until the next rinsing step.
(§2) NADM, N-acetyl-D-glucosamine (“NADG”) and D-(+)-mannose are selected to determine their effects on multi-species biofilm composition. […] decrease in absolute numbers in at least four of the pathogenic bacterial species tested in the assay, compared to the control, the results of which are described in Table 1 below. Absolute abundances of bacterial species are shown as mean±SD (n=3) logarithmic values of the genome equivalents per millilitre (log(Geq/mL)).

[2] = system: P. gingivalis; assay: Multi-species biofilm composition: absolute abundance of P. gingivalis; conditions: mean±SD n=3
Method: as §1, §2

[3] = system: P. intermedia; assay: Multi-species biofilm composition: absolute abundance of P. intermedia; conditions: mean±SD n=3
Method: as §1
(§3) NADM, N-acetyl-D-glucosamine (“NADG”) and D-(+)-mannose are selected to determine their effects on multi-species biofilm composition. Repeated rinsing of the biofilms with the substrates at a concentration of 1M results in a significant decrease in absolute numbers in at least four of the pathogenic bacterial species tested in the assay, compared to the control, the results of which are described in Table 1 below. Absolute abundances of bacterial species are shown as mean±SD (n=3) logarithmic values of the genome equivalents per millilitre (log(Geq/mL)).

[4] = system: S. mutans; assay: Multi-species biofilm composition: absolute abundance of S. mutans; conditions: mean±SD n=3
Method: as §1, §3

[5] = system: S. gordonii; assay: Multi-species biofilm composition: absolute abundance of S. gordonii; conditions: mean±SD n=3
Method: as §1, §3

[6] = system: S. mitis; assay: Multi-species biofilm composition: absolute abundance of S. mitis; conditions: mean±SD n=3
Method: as §1, §2

[7] = system: S. oralis; assay: Multi-species biofilm composition: absolute abundance of S. oralis; conditions: for Absolute abundance S. oralis: mean±SD n=3
Method: as §1, §2

[8] = system: S. salivarius; assay: Multi-species biofilm composition: absolute abundance of S. salivarius; conditions: mean±SD n=3
Method: as §1, §3

[9] = system: S. sanguinis; assay: Multi-species biofilm composition: absolute abundance of S. sanguinis; conditions: mean±SD n=3
Method: as §1, §2

[10] = system: A. actinomycetemcomitans virulence genes; assay: Multi-species biofilm virulence gene expression, SYBR RT-qPCR: A. actinomycetemcomitans; conditions: for Fold Change in virulence gene expression: aae / Fold Change in virulence gene expression: apaH / Fold Change in virulence gene expression: cdtB / Fold Change in virulence gene expression: emaA / Fold Change in virulence gene expression: flp / Fold Change in virulence gene expression: ltxA / Fold Change in virulence gene expression: omp29 / Fold Change in virulence gene expression: omp100 / Fold Change in virulence gene expression: orf859 / Fold Change in virulence gene expression: pgA / Fold Change in virulence gene expression: vapA / Fold Change in virulence gene expression: vppA: relative to control (=1), 2^-ΔΔCt, geometric mean n=3
Method: as §1
(§4) The expression of 33 virulence genes from 4 periodontal pathogens is analysed to evaluate the relative virulence of the substrate-treated biofilms. For all three substrates, virulence gene expression is determined relatively to the control, and these values are also compared between substrates when this is relevant (Tables 5a-5d).

[11] = system: P. gingivalis virulence genes; assay: Multi-species biofilm virulence gene expression, SYBR RT-qPCR: P. gingivalis; conditions: for Fold Change in virulence gene expression: fimA / Fold Change in virulence gene expression: kgp / Fold Change in virulence gene expression: partC / Fold Change in virulence gene expression: rgpA: relative to control, 2^-ΔΔCt, geometric mean n=3
Method: as §1, §4

[12] = system: human oral keratinocytes (HOK-18A); assay: IL-8 levels in supernatants of keratinocyte cultures exposed to substrate-treated biofilms; conditions: mean±SD n=3
Method: Cultures of immortalized human oral keratinocytes (HOK-18A) are grown. The relative inflammatory potential of the substrate-treated multi-species biofilms is evaluated by analyzing the expression of five inflammatory mediator genes in human oral keratinocytes (HOKs) exposed to the substrate-treated biofilms. […] The IL-8 levels in the cellular supernatant are determined as well. RNA is converted to cDNA and relative expression of inflammatory mediator genes is determined as described above with respect to the cellular housekeeping gene (3-actin.
Table 7: IL-8 levels detected in the supernatants of human oral keratinocytes (HOK-18A) cultures exposed to substrate-treated multi-species biofilms are shown as mean±SD (n=3) values (pg/mL). All substrates are dissolved in PBS at a concentration of 1 M (upper part) or 1% (w/v) (lower part). Values between 0 and 1 represent relative downregulation, values >1 represent relative upregulation. […] For such values, statistically significant differences between two experimental conditions are marked with ‘#1’ (vs. NADM), ‘#2’ (vs. NADG), ‘#3’ (vs. D-(+)-mannose) (P<0.05).

SMILES: CC(=O)N[C@H]1C(O)O[C@H](CO)[C@@H](O)[C@@H]1O (stereo partly drawn) [NADG, N-acetyl-D-glucosamine, reference compound]
- Absolute abundance Fn (F. nucleatum) ([1]; substrate 1%(w/v) in PBS): 9.41 ± 0.19 log(Geq/mL)
- Absolute abundance Fn (F. nucleatum) ([1]; substrate 1 M in PBS): 7.09 ± 0.30 log(Geq/mL)
- Absolute abundance Pg (P. gingivalis) ([2]; substrate 1%(w/v) in PBS): 7.14 ± 0.28 log(Geq/mL)
- Absolute abundance Pg (P. gingivalis) ([2]; substrate 1 M in PBS): 4.00 ± 0.39*^, ^#3 log(Geq/mL)
- Absolute abundance Pi (P. intermedia) ([3]; substrate 1%(w/v) in PBS): 8.17 ± 0.22 log(Geq/mL)
- Absolute abundance Pi (P. intermedia) ([3]; substrate 1 M in PBS): 6.93 ± 0.62 log(Geq/mL)
- Absolute abundance S. mutans ([4]; substrate 1%(w/v) in PBS): 7.83 ± 0.23 log(Geq/mL)
- Absolute abundance S. mutans ([4]; substrate 1 M in PBS): 8.95 ± 0.38 log(Geq/mL)
- Absolute abundance S. gord. (S. gordonii) ([5]; substrate 1%(w/v) in PBS): 8.33 ± 0.06 log(Geq/mL)
- Absolute abundance S. gord. (S. gordonii) ([5]; substrate 1 M in PBS): 9.38 ± 0.40 log(Geq/mL)
- Absolute abundance S. mitis ([6]; substrate 1%(w/v) in PBS): < LOD
- Absolute abundance S. mitis ([6]; substrate 1 M in PBS): <LOD
- Absolute abundance S. oralis ([7]; substrate 1%(w/v) in PBS): 7.11 ± 0.14 log(Geq/mL)
- Change in S. oralis numbers compared to the control ([7]; substrate 1 M): +1.0 log(Geq/mL)
- Absolute abundance S. oralis ([7]; substrate 1 M in PBS): 7.97 ± 0.31*^, #1 log(Geq/mL)
- Absolute abundance S. sal. (S. salivarius) ([8]; substrate 1%(w/v) in PBS): 2.65 ± 0.00 log(Geq/mL)
- Absolute abundance S. sal. (S. salivarius) ([8]; substrate 1 M in PBS): 4.38 ± 1.23 log(Geq/mL)
- Absolute abundance S. sang. (S. sanguinis) ([9]; substrate 1%(w/v) in PBS): 8.4 ± 0.11 log(Geq/mL)
- Absolute abundance S. sang. (S. sanguinis) ([9]; substrate 1 M in PBS): 8.11 ± 0.68 log(Geq/mL)
- Fold Change in virulence gene expression: aae ([10]; substrate 1% (w/v)): 1.55 fold
- Fold Change in virulence gene expression: apaH ([10]; substrate 1% (w/v)): 0.73 fold
- Fold Change in virulence gene expression: cdtB ([10]; substrate 1% (w/v)): 1.05 fold
- Fold Change in virulence gene expression: emaA ([10]; substrate 1% (w/v)): 0.68 fold
- Fold Change in virulence gene expression: flp ([10]; substrate 1% (w/v)): 0.54 fold
- Fold Change in virulence gene expression: ltxA ([10]; substrate 1% (w/v)): 0.40 fold
- Fold Change in virulence gene expression: omp29 ([10]; substrate 1% (w/v)): 0.77 fold
- Fold Change in virulence gene expression: omp100 ([10]; substrate 1% (w/v)): 0.71 fold
- Fold Change in virulence gene expression: orf859 ([10]; substrate 1% (w/v)): 1.99 fold
- Fold Change in virulence gene expression: pgA ([10]; substrate 1% (w/v)): 0.72 fold
- Fold Change in virulence gene expression: vapA ([10]; substrate 1% (w/v)): 0.65 fold
- Fold Change in virulence gene expression: vppA ([10]; substrate 1% (w/v)): 0.28 fold
- A. actinomycetemcomitans gene expression decrease: vppA ([10]; substrate 1%(w/v)): 3.6 fold
- A. actinomycetemcomitans gene expression increase: aae ([10]; substrate 1%(w/v)): 1.5 fold
- A. actinomycetemcomitans gene expression increase: orf859 ([10]; substrate 1%(w/v)): 2 fold
- Upregulation of A. actinomycetemcomitans expression of flp ([10]; substrate 1 M): 2.4 fold
- Fold Change in virulence gene expression: aae ([10]; substrate 1M): 0.24 fold
- Fold Change in virulence gene expression: apaH ([10]; substrate 1M): 0.08 fold
- Fold Change in virulence gene expression: cdtB ([10]; substrate 1M): 0.04 fold
- Fold Change in virulence gene expression: emaA ([10]; substrate 1M): 0.29 fold
- Fold Change in virulence gene expression: flp ([10]; substrate 1M): 2.40 fold
- Fold Change in virulence gene expression: ltxA ([10]; substrate 1M): 0.01 fold
- Fold Change in virulence gene expression: omp29 ([10]; substrate 1M): 0.19 fold
- Fold Change in virulence gene expression: omp100 ([10]; substrate 1M): 0.03 fold
- Fold Change in virulence gene expression: orf859 ([10]; substrate 1M): 0.13 fold
- Fold Change in virulence gene expression: pgA ([10]; substrate 1M): 11.60 fold
- Fold Change in virulence gene expression: vapA ([10]; substrate 1M): 1.00 fold
- Fold Change in virulence gene expression: vppA ([10]; substrate 1M): 0.49 fold
- P. gingivalis partC expression decrease ([11]; substrate 1%(w/v)): 2.8 fold
- Fold Change in virulence gene expression: fimA ([11]; substrate 1%): 1.15 fold
- Fold Change in virulence gene expression: kgp ([11]; substrate 1%): 1.81 fold
- Fold Change in virulence gene expression: partC ([11]; substrate 1%): 0.36 fold
- Fold Change in virulence gene expression: rgpA ([11]; substrate 1%): 1.31 fold
- Fold Change in virulence gene expression: fimA ([11]; substrate 1M): 0.79 fold
- Fold Change in virulence gene expression: kgp ([11]; substrate 1M): 0.07 fold
- Fold Change in virulence gene expression: partC ([11]; substrate 1M): 0.19 fold
- Fold Change in virulence gene expression: rgpA ([11]; substrate 1M): 0.39 fold
- IL-8 levels in supernatants of HOK-18A cultures ([12]; biofilm rinsed with substrate 1%(w/v)): 54.75 ± 11.66 pg/mL
- IL-8 levels in supernatants of HOK-18A cultures ([12]; biofilm rinsed with substrate 1M): 0.22 ± 0.32 pg/mL
